Test results reported in PubChem BioAssay AID179 (DTP/NCI, 2004).
Where “and” joins values, the source holds several entries; their conditions need not be identical. Equal values may be shown once. Calls of active or inactive are those of the source.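 Rule for the calls: active = compounds giving half or more protection of infected cells from virus-caused growth loss, again on retest; inactive = the rest.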

System: CEM cells HIV-1 protection, formazan growth assay
Test: NCI AIDS Antiviral Assay
Settings: for IC50: measured here: growth of uninfected CEM cells
In short: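 Category rules: moderately active means at least 50% protection on retest, and confirmed active means 100% protection reproducibly. The underlying data came from a formazan growth assay in HIV-1-infected CEM cells.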

Structure (SMILES)	outcome	EC50	IC50
CC1=CC(C)(C)NC(=S)N1CCO	inactive		
O=C1c2ccccc2C(=O)N1CCn1ccc(NC(c2ccccc2)(c2ccccc2)c2ccccc2)nc1=O		> 13.8 µM	> 13.8 µM
CN(C)N1C(=C(C#N)C#N)C(c2ccccc2)CC1C#N (stereo unspecified)		> 200 µM	> 200 µM
Cc1ccc2nc3c(C)cc(=O)cc-3sc2c1		> 77.6 µM	50.1 µM
CC1(C=O)C(=O)CCC2(C)C3CC(=O)OC3CCC12 (stereo unspecified)	inactive		
CC(=O)OCC(OC(C)=O)C(OC(C)=O)C(OC(C)=O)C(=O)CNn1c(-c2ccccc2Cl)nc2ccccc2c1=O (stereo unspecified)	inactive		
NC(=O)NNCc1c(-c2ccccc2)no[n+]1[O-]		> 200 µM	> 200 µM
O=C1NC(=O)c2ccc([N+](=O)[O-])c3cccc1c23		> 0.871 µM	0.1 µM
N#Cc1nc(-c2ccsc2)oc1N		> 200 µM	> 200 µM
CCOC(=O)/C(C#N)=C/c1cccc(Cl)c1		> 79.4 µM	> 79.4 µM
CNC(=O)NCCCCC(NC(=O)OCc1ccccc1)C(=O)OCc1ccccc1 (stereo unspecified)		> 83.2 µM	60.3 µM
CCCCNC(=O)/N=C/c1c(O)c2ccccc2oc1=O		> 91.2 µM	58.9 µM
C1=C(c2ccccc2)NC2=N[C@H]3CCCC[C@@H]3N2C1c1ccccc1 (stereo partly specified)		> 126 µM	8.13 µM
CCCN(C)C(=O)N(CC)S(=O)(=O)c1ccc(Cl)cc1	inactive		
CNc1cc(C)ccc1S(=O)(=O)c1ccccc1[N+](=O)[O-]		0.219 µM	30.2 µM
CCOC(=O)N/N=C(\Cc1ccc([N+](=O)[O-])cc1)OCC		> 200 µM	> 200 µM
C/C=C/C(=O)Oc1cccc2cccnc12		> 251 µM	1.51 µM
COc1ccc(/C=C/c2ccnc3ccccc23)cc1OC		0.0631 µM	50.1 µM
CCOC(=O)C(=Cc1cccc(Cl)c1)C(=O)OCC		> 91.2 µM	6.17 µM
COc1ccc([N+](=O)[O-])c2c(NCCCN(C)C)c3ccccc3nc12		> 0.2 µM	0.138 µM
CCCCCCCCCCCCCCCCC(O)CS(=O)(=O)O (stereo unspecified)		> 100 µM	16.2 µM
CCOP(=O)(OCC)C(Cc1ccccc1)N=C(c1ccccc1)c1ccccc1 (stereo unspecified)		> 200 µM	10.7 µM

Structure (SMILES)	outcome	EC50	IC50
COC(=O)C(C(=O)C(=O)Nc1ccc([N+](=O)[O-])cc1[N+](=O)[O-])c1nc2ccc(Cl)cc2[nH]c1=O (stereo unspecified)		> 74.1 µM	66.1 µM
CN1C(=O)C(C)(C)C(=O)c2ccccc21		> 200 µM	> 200 µM
CCc1cccc(C(C)CC)c1NC(=O)C(=O)C(CC(=O)Nc1ccc(Cl)c(Cl)c1)C(=O)OC (stereo unspecified)		> 186 µM	> 186 µM
CN(C)CCC=C1c2ccccc2C=Cc2ccccc21		> 200 µM	33.9 µM and 28.8 µM and 37.2 µM
CC(C)C1=C[C@H](c2ccccc2)c2ccccc2C1C(C#N)(C#N)C(C)C (stereo partly specified)		> 1.48 µM	> 1.48 µM
CCNC(=S)NNC(=O)c1csc(NC(=S)NC2CCCCC2)n1		> 200 µM	6.61 µM
O=C1[C@@H]2C(c3c(Cl)cccc3Cl)=NO[C@@H]2C(=O)N1c1ccc(Cc2ccc(N3C(=O)[C@H]4C(c5c(Cl)cccc5Cl)=NO[C@H]4C3=O)cc2)cc1		> 35.5 µM	> 35.5 µM
c1ccc2c(c1)cnc1c3ccccc3nn21		> 17.4 µM	> 17.4 µM
O=[N+]([O-])c1ccc2c(c1)nc1n2C(c2c(F)cccc2F)SC1 (stereo unspecified)		186 µM	195 µM
CC(C)OP(=O)(OC(C)C)C(=NCCN=C(NNc1ccc([N+](=O)[O-])cc1)P(=O)(OC(C)C)OC(C)C)NNc1ccc([N+](=O)[O-])cc1		> 7.24 µM	> 7.24 µM
COC(=O)C1=C(C(=O)OC)C2(C3=C(C)C(=O)c4ccccc43)CCC1(C)O2 (stereo unspecified)		> 97.7 µM	52.5 µM
O=C1/C(=C/c2cccc(F)c2)CCCc2ccccc21		> 200 µM	19.5 µM
O=[N+]([O-])c1cc2n[nH]nc2c2nonc12		> 200 µM	4.79 µM
C=CCOC1OC(CO[Si](C)(C)C(C)(C)C)C(OCc2ccccc2)C(OCc2ccccc2)C1OCc1ccccc1 (stereo unspecified)	inactive		
COc1cc(/C=N/c2nncs2)ccc1O		> 79.4 µM	> 79.4 µM
Cc1ccc(NC(=O)C2C(=O)N(c3ccc(C)c(C)c3)C(=O)/C2=N\NC(N)=O)cc1C (stereo unspecified)	inactive		
C[C@@H]1C[C@H]2[C@@H]3CCC4=CC(=O)CC[C@]4(C)[C@@]3(F)[C@@H](O)C[C@]2(C)[C@@]1(C)O		> 200 µM	87.1 µM
O=C(O)c1cc(OS(=O)(=O)O)c(OS(=O)(=O)O)c(OS(=O)(=O)O)c1		> 200 µM	11.2 µM
COc1ccc(/C=C(/C(=O)O)c2ccccc2)cc1		> 708 µM	288 µM
CC(=O)OC1CC2C(C)(CCC3C2(C)CCC2(C)C4CC(C)(C)CCC4(C)CCC32C)C1C (stereo unspecified)		> 200 µM	145 µM
COC(=O)c1sc2c(Cl)c(Cl)sc2c1Cl		> 50.1 µM	> 50.1 µM
CC(C)(C)[Si](C)(C)OCC1OC(n2ccc(=O)[nH]c2=O)C(O[Si](C)(C)C(C)(C)C)/C1=N/O (stereo unspecified)		> 200 µM	4.07 µM

Structure (SMILES)	outcome	EC50	IC50
O=C(CNC1=NCCN1)Nc1ccc(NC(=O)c2ccc(C(=O)Nc3ccc(NC(=O)CNC4=NCCN4)cc3)cc2)cc1		24 µM	> 200 µM
C=CC1C(C[C@@H]2c3cc(O)c(O)cc3CCN2C(C)=O)C(C(=O)OC)=CO[C@H]1OC1OC(CO)C(O)C(O)C1O (stereo partly specified)	inactive		
Cc1ncc([N+](=O)[O-])n1CCNCCCn1ccnc1[N+](=O)[O-]		> 200 µM	> 200 µM
O=C(OCc1ccccc1)N1CCNCCNCCN(C(=O)OCc2ccccc2)CCNCC1		> 200 µM	112 µM
CNC(=O)NCCN1CC2CCC(CC2)C1		> 200 µM	> 200 µM
Cn1c2c(c3ccccc31)CCN(CCCCN1CCCCC1)C2=O		> 372 µM	58.9 µM
COc1cc(C)cc2c1c(=O)c1ccccc1n2C		> 200 µM	38.9 µM
[N-]=[N+]=NC1(c2ccccc2)C(=O)c2cccc3c4ccccc4n(c23)C1=O (stereo unspecified)		> 200 µM	> 200 µM
COc1ccc2c(c1)OCC1=C2Oc2ccccc2C1		> 200 µM	26.9 µM
CCC(O)(Cc1ccccc1)C(C(=O)O)c1ccccc1 (stereo unspecified)		> 457 µM	339 µM
O=C1c2ccccc2C(=O)[C@@]23O[C@@]12C1(Oc2cccc4cccc(c24)O1)[C@@H]1O[C@@H]1[C@@H]3O		> 20 µM	1.15 µM
COc1cc(-c2oc3ccccc3c(=O)c2O)cc(OC)c1OC		> 200 µM	79.4 µM
N#Cc1ccccc1OCCOc1ccccc1C#N		> 200 µM	> 200 µM
O=C1c2cccn2-c2ccccc2OC1(CC1CC1)c1ccccc1 (stereo unspecified)		> 200 µM	11.5 µM
S=P(N1CC1)(N1CC1)N1CC1		> 1320 µM	3.16 µM
COc1nc(N=[N+]=[N-])nc(-c2c(OC)ccc3ccccc23)n1		> 200 µM	47.9 µM
CCN(CC)C(=O)c1cccc2c1OCO2		> 1120 µM	> 1120 µM
C=C(CCCO)[C@@H]1CC[C@@](C)(O)[C@H]1C	inactive		
C/C(=C/c1cc(=O)n(C)c2ccccc12)[N+](=O)[O-]		> 200 µM	0.832 µM
COc1ccc(-c2onc(-c3ccc([N+](=O)[O-])cc3)c2C2=NCCCN2)cc1		> 50.1 µM	> 50.1 µM
NC(=O)C(NN=C1c2ccccc2-c2ccccc21)(c1ccccc1)c1ccccc1		> 200 µM	28.2 µM
COc1cccc(/C=C(\C#N)C(=O)c2ccccc2)c1		> 97.7 µM	> 97.7 µM

Structure (SMILES)	outcome	EC50	IC50
O=C(CNc1c(Cl)cccc1Cl)NC1C=Cc2ccc(S(=O)(=O)Nc3c(Cl)cccc3Cl)cc2C1=O (stereo unspecified)		> 200 µM	123 µM
O=c1cc(NNc2cccc(Cl)c2)[nH]c(=O)[nH]1		> 200 µM	1.05 µM
COC(=O)CC1CC2(C(=O)OC)c3[nH]c4ccccc4c3CCN2C1=O (stereo unspecified)		> 224 µM	> 224 µM
Oc1ccccc1C1SCc2nc3ccccc3n21 (stereo unspecified)		> 26.9 µM	> 26.9 µM
CC1ON2CCCC2[C@H]1C(=O)N1C2CC3CCC2(CS1(=O)=O)C3(C)C (stereo partly specified)		> 200 µM	> 200 µM
O=c1[nH]c2nn(-c3ccccc3)cc2c(=O)n1O		> 200 µM	3.31 µM
O=C1OC(c2cccc3ccc(Br)cc23)c2ccccc21 (stereo unspecified)		27.5 µM	52.5 µM
CCCC(=O)Sc1ccccc1C(=O)Nc1ccc(S(=O)(=O)NC(C)=O)cc1		28.2 µM	112 µM
O=C1OC(=O)C2C1C1C(c3ccccc3)=C(c3ccccc3)C2(O)C2C(=O)OC(=O)C12 (stereo unspecified)		> 17.4 µM	10.2 µM
NC1=NCC(c2ccccn2)C1c1ccc(F)cc1 (stereo unspecified)	inactive		
N=C1SCC(=O)N1CCN1C(=N)SCC1=O		> 79.4 µM	> 79.4 µM
Nc1nc(Cl)c2ncn(C3C=CC(CO)CC3)c2n1 (stereo unspecified)		> 200 µM	97.7 µM
O=c1c(O)c(-c2ccc(O)c(O)c2)oc2cc(O)cc(O)c12.[Zr]		> 200 µM	> 200 µM
CCOP(=S)(OCC)SC(C)(C)C		> 107 µM	> 107 µM
O=C(O)c1ccccc1/C=N/NC1=CS(=O)(=O)C=C1	inactive		
O=S(=O)([O-])[O-].O=c1[nH]cnc2[nH]ncc12.O=c1[nH]cnc2[nH]ncc12.[Cu+2]		> 83.2 µM	52.5 µM
CC(C)=CCC/C(C)=C/COC(C)(C)C1=CCC(C)CC1 (stereo unspecified) (tested in a mixture with another compound)		> 200 µM	> 200 µM
CCN(CC)CCC(=O)c1ccc(Cl)c(Cl)c1		> 5010 µM	> 5010 µM
Cc1ccc2c(c1)sc1nnc(Cl)n12		> 200 µM	> 200 µM
COc1nc2sc3c(c2c(=O)n1CCCSSCCCn1c(OC)nc2sc4c(c2c1=O)CCCC4)CCCC3		> 100 µM	> 100 µM
CC(C)[Si]1(C(C)C)OCC2OC3(CO)C(Oc4nc(=O)ccn43)C2O[Si](C(C)C)(C(C)C)O1 (stereo unspecified)		> 200 µM	18.6 µM
CCOc1ccc(N2C(=O)C3c4[nH]c5ccccc5c4C4CCC(C(C)(C)C)CC4C3C2=O)cc1 (stereo unspecified)		> 2.19 µM	> 2.19 µM
